We go through two compounds from paper PMC12395297, “Bidirectional Modification of a Galbulimima Alkaloid Identifies Selective Opioid Ligands” (ACS Central Science, 2025).

Assay [1] deals with T1, KOR (Homo sapiens, UniProt P41145). The assay can be described thus: KOR affinity (pKi) of pyridyl GB18 analogs, Figure 1b. It is filed as binding. To be noted: footnote a.
Assay [2] deals with T1, KOR. Briefly: 35S-GTPγS binding in CHO-KOR cells. To be noted: read-out: KOR Emax. In kind it is biochemical. Background: GTPγS resists hydrolysis and so accumulates on activated G proteins.
Assay [3] concerns the target T1, KOR. Briefly: Inhibition of forskolin-stimulated cAMP accumulation (KOR agonism, HTRF). It is filed as cell-based. For orientation: Cyclic AMP is a second messenger, typically raised through Gs and lowered through Gi signalling.
Assay [4] relates to 320 GPCRs. The assay can be described thus: GPCRome PRESTO-Tango screen across 320 GPCRs (PDSP). It is filed as cell-based.
Assay [5] addresses T1, KOR. Further details: method as in earlier paper of the authors (Woo, Shenvi, Nature 2022). To be noted: antagonism; TANGO β-arrestin signaling, n = 3; ref earlier paper of the authors (Woo, Shenvi, Nature 2022); cited from earlier work.
Assay [6] addresses MOR (Homo sapiens, UniProt P35372). Set-up: method as in earlier paper of the authors (Woo, Shenvi, Nature 2022). To be noted: antagonism; TANGO β-arrestin signaling, n = 3; ref earlier paper of the authors (Woo, Shenvi, Nature 2022); cited from earlier work.

Entries after “also recorded” stand apart in the source; their conditions may differ.

T1 sequence (P41145 whole entry): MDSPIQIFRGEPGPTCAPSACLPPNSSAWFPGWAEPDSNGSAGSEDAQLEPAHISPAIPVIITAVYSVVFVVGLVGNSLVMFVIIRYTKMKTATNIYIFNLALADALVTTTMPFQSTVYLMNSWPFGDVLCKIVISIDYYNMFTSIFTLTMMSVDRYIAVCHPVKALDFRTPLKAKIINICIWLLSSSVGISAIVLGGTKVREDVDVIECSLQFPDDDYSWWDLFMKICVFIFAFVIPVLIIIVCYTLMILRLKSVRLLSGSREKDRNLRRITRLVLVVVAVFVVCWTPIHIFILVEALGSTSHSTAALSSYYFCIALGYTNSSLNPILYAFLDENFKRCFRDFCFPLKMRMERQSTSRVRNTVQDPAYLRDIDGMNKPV
Chain of MOR (P35372 whole entry): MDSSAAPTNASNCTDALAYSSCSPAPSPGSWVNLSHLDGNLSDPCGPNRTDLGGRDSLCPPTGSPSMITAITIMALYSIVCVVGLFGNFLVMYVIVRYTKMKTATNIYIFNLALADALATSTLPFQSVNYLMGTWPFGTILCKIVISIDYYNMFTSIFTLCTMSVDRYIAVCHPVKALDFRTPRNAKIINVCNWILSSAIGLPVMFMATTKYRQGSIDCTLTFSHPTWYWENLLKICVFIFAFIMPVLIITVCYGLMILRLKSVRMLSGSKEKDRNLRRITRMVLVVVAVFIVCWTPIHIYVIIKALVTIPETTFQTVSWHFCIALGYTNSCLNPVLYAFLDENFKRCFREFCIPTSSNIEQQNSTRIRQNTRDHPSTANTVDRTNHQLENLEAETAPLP

As usually defined, the Ki is a measure of affinity in units of concentration, obtained from inhibition or displacement. In general, Emax refers to the maximal effect, on the per cent scale that the assay sets. In general, EC50 refers to the midpoint of the concentration-response curve. Low values mean an effect from little substance, high ones a need for much substance. `COC(=O)C1=CC23CCCCC2C2CC(c4cccc(C)n4)C(C)(O3)C12` (stereo not shown) [compound 2] showed an inhibition constant (Ki) in assay [1] of 29.5 nM. Besides, the maximum response (Emax) in assay [2] came out at 34%; in assay [3] (read-out: KOR Emax) it was 56%. This compound also showed an EC50 in assay [3] (inhibition of forskolin-stimulated cAMP accumulation, Figure 4 and text) of 476 nM. Moreover, the “GPCR selectivity in PRESTO-Tango agonist screen” value in assay [4] is given as “highly selective partial agonist; also recorded: agonized KOR with high selectivity among 320 GPCRs”.

With GB18, in assay [5], the “KOR pIC50” value is given as 8. Besides, in assay [6], the “MOR pIC50” value was 8.
